# The supplement of paper PMC10307832
# Legend:
# Assay in all cases: relative viability (nuclei count vs DMSO), 5 days (fraction); higher = more cells survive
# LCLC-103H = tested on: LCLC-103H
# In short: (§1)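 Lung cancer cell lines, seeded in 1536-well plates, were treated the following day by pin tool with a single drug or with five library-drug doses (not always all listed) in √10 steps on top of a fixed anchor-drug dose. Cells were fixed and nuclei stained in one step after 5 days, and nuclei were counted. Relative viability is the nuclei count for treated wells divided by that for vehicle wells, reported as medians of duplicate plates.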
# SK-MES-1 = tested on: SK-MES-1
# In short: as §1
# UMC-11 = tested on: UMC-11
# In short: as §1
# NCI-H1793 = tested on: NCI-H1793
# In short: as §1
# LCLC-97TM1 = tested on: LCLC-97TM1
# In short: as §1
# NCI-H1944 = tested on: NCI-H1944
# In short: as §1
# NCI-H2085 = tested on: NCI-H2085
# In short: as §1
# EPLC-272H = tested on: EPLC-272H
# In short: as §1
# NCI-H1355 = tested on: NCI-H1355
# In short: as §1
# NCI-H2023 = tested on: NCI-H2023
# In short: as §1
# NCI-H2405 = tested on: NCI-H2405
# In short: as §1
# HCC-827 = tested on: HCC-827
# In short: as §1
# NCI-H322M = tested on: NCI-H322M
# In short: as §1
# NCI-H1563 = tested on: NCI-H1563
# In short: as §1
# EMC-BAC-2 = tested on: EMC-BAC-2
# In short: as §1
# H3255 = tested on: H3255
# In short: as §1
# NCI-H2087 = tested on: NCI-H2087
# In short: as §1
# NCI-H1395 = tested on: NCI-H1395
# In short: as §1
# ChaGo-K-1 = tested on: ChaGo-K-1
# In short: as §1
# NCI-H520 = tested on: NCI-H520
# In short: as §1
# NCI-H650 = tested on: NCI-H650
# In short: as §1
# NCI-H1651 = tested on: NCI-H1651
# In short: as §1
compound,measurement,setting,value
CC1(C)CCC(c2ccc(Cl)cc2)=C(CN2CCN(c3ccc(C(=O)NS(=O)(=O)c4ccc(N[C@H](CCN5CCOCC5)CSc5ccccc5)c(S(=O)(=O)C(F)(F)F)c4)cc3)CC2)C1 [Navitoclax] + COc1cc2c(Oc3ccc(NC(=O)C4(C(=O)Nc5ccc(F)cc5)CC4)cc3F)ccnc2cc1OCCCN1CCOCC1 [Foretinib] (partner 0.25 µM),relative viability,LCLC-103H; first compound 0.005 µM,0.676
same,relative viability,LCLC-103H; first compound 0.01581 µM,0.934
same,relative viability,LCLC-103H; first compound 0.05 µM,0.973
same,relative viability,LCLC-103H; first compound 0.1581 µM,0.832
same,relative viability,LCLC-103H; first compound 0.5 µM,0.81
same,relative viability,SK-MES-1; first compound 0.005 µM,0.817
same,relative viability,SK-MES-1; first compound 0.01581 µM,1.09
same,relative viability,SK-MES-1; first compound 0.05 µM,0.916
same,relative viability,SK-MES-1; first compound 0.1581 µM,0.895
same,relative viability,SK-MES-1; first compound 0.5 µM,1.04
same,relative viability,UMC-11; first compound 0.005 µM,0.976
same,relative viability,UMC-11; first compound 0.01581 µM,1.14
same,relative viability,UMC-11; first compound 0.05 µM,1.18
same,relative viability,UMC-11; first compound 0.1581 µM,0.937
same,relative viability,UMC-11; first compound 0.5 µM,0.66
same,relative viability,NCI-H1793; first compound 0.005 µM,0.616
same,relative viability,NCI-H1793; first compound 0.01581 µM,0.711
same,relative viability,NCI-H1793; first compound 0.1581 µM,0.608
same,relative viability,NCI-H1793; first compound 0.5 µM,0.622
same,relative viability,LCLC-97TM1; first compound 0.005 µM,0.972
same,relative viability,LCLC-97TM1; first compound 0.01581 µM,0.984
same,relative viability,LCLC-97TM1; first compound 0.05 µM,0.831
same,relative viability,LCLC-97TM1; first compound 0.1581 µM,0.985
same,relative viability,LCLC-97TM1; first compound 0.5 µM,0.921
same,relative viability,NCI-H1944; first compound 0.005 µM,0.872
same,relative viability,NCI-H1944; first compound 0.01581 µM,0.945
same,relative viability,NCI-H1944; first compound 0.05 µM,0.745
same,relative viability,NCI-H1944; first compound 0.1581 µM,0.851
same,relative viability,NCI-H1944; first compound 0.5 µM,0.741
same,relative viability,NCI-H2085; first compound 0.005 µM,0.92
same,relative viability,NCI-H2085; first compound 0.01581 µM,0.98
same,relative viability,NCI-H2085; first compound 0.05 µM,0.989
same,relative viability,NCI-H2085; first compound 0.1581 µM,0.863
same,relative viability,NCI-H2085; first compound 0.5 µM,0.836
same,relative viability,EPLC-272H; first compound 0.005 µM,0.707
same,relative viability,EPLC-272H; first compound 0.05 µM,0.766
same,relative viability,EPLC-272H; first compound 0.1581 µM,0.712
same,relative viability,EPLC-272H; first compound 0.5 µM,0.764
same,relative viability,NCI-H1355; first compound 0.005 µM,0.993
same,relative viability,NCI-H1355; first compound 0.01581 µM,0.951
same,relative viability,NCI-H1355; first compound 0.05 µM,0.939
same,relative viability,NCI-H1355; first compound 0.1581 µM,0.941
same,relative viability,NCI-H1355; first compound 0.5 µM,0.965
same,relative viability,NCI-H2023; first compound 0.005 µM,0.912
same,relative viability,NCI-H2023; first compound 0.01581 µM,1.12
same,relative viability,NCI-H2023; first compound 0.05 µM,0.819
same,relative viability,NCI-H2023; first compound 0.1581 µM,0.848
same,relative viability,NCI-H2023; first compound 0.5 µM,0.995
same,relative viability,NCI-H2405; first compound 0.005 µM,1.04
same,relative viability,NCI-H2405; first compound 0.01581 µM,1.09
same,relative viability,NCI-H2405; first compound 0.05 µM,0.998
same,relative viability,NCI-H2405; first compound 0.1581 µM,1.04
same,relative viability,NCI-H2405; first compound 0.5 µM,1.05
same,relative viability,HCC-827; first compound 0.005 µM,0.914
same,relative viability,HCC-827; first compound 0.01581 µM,1.05
same,relative viability,HCC-827; first compound 0.05 µM,0.832
same,relative viability,HCC-827; first compound 0.1581 µM,1.03
same,relative viability,HCC-827; first compound 0.5 µM,1.01
same,relative viability,NCI-H322M; first compound 0.005 µM,1.03
same,relative viability,NCI-H322M; first compound 0.01581 µM,1.19
same,relative viability,NCI-H322M; first compound 0.05 µM,0.795
same,relative viability,NCI-H322M; first compound 0.1581 µM,0.992
same,relative viability,NCI-H322M; first compound 0.5 µM,1.1
same,relative viability,NCI-H1563; first compound 0.005 µM,0.948
same,relative viability,NCI-H1563; first compound 0.01581 µM,0.967
same,relative viability,NCI-H1563; first compound 0.05 µM,0.856
same,relative viability,NCI-H1563; first compound 0.1581 µM,0.987
same,relative viability,NCI-H1563; first compound 0.5 µM,1.03
same,relative viability,EMC-BAC-2; first compound 0.005 µM,1.07
same,relative viability,EMC-BAC-2; first compound 0.01581 µM,1.14
same,relative viability,EMC-BAC-2; first compound 0.05 µM,0.96
same,relative viability,EMC-BAC-2; first compound 0.1581 µM,1.01
same,relative viability,EMC-BAC-2; first compound 0.5 µM,1.05
same,relative viability,H3255; first compound 0.005 µM,0.884
same,relative viability,H3255; first compound 0.01581 µM,0.973
same,relative viability,H3255; first compound 0.05 µM,0.764
same,relative viability,H3255; first compound 0.1581 µM,0.861
same,relative viability,H3255; first compound 0.5 µM,0.787
same,relative viability,NCI-H2087; first compound 0.005 µM,1.07
same,relative viability,NCI-H2087; first compound 0.01581 µM,1.08
same,relative viability,NCI-H2087; first compound 0.1581 µM,0.953
same,relative viability,NCI-H2087; first compound 0.5 µM,1.07
same,relative viability,NCI-H1395; first compound 0.005 µM,1.15
same,relative viability,NCI-H1395; first compound 0.01581 µM,1.19
same,relative viability,NCI-H1395; first compound 0.05 µM,0.865
same,relative viability,NCI-H1395; first compound 0.1581 µM,0.986
same,relative viability,NCI-H1395; first compound 0.5 µM,1.12
same,relative viability,ChaGo-K-1; first compound 0.005 µM,1.04
same,relative viability,ChaGo-K-1; first compound 0.01581 µM,0.94
same,relative viability,ChaGo-K-1; first compound 0.05 µM,0.537
same,relative viability,ChaGo-K-1; first compound 0.1581 µM,0.9
same,relative viability,ChaGo-K-1; first compound 0.5 µM,0.932
same,relative viability,NCI-H520; first compound 0.01581 µM,0.985
same,relative viability,NCI-H520; first compound 0.05 µM,0.892
same,relative viability,NCI-H520; first compound 0.1581 µM,0.738
same,relative viability,NCI-H520; first compound 0.5 µM,0.61
same,relative viability,NCI-H650; first compound 0.005 µM,1.05
same,relative viability,NCI-H650; first compound 0.01581 µM,1.15
same,relative viability,NCI-H650; first compound 0.05 µM,1
same,relative viability,NCI-H650; first compound 0.1581 µM,1.04
same,relative viability,NCI-H650; first compound 0.5 µM,1.07
same,relative viability,NCI-H1651; first compound 0.005 µM,0.681
same,relative viability,NCI-H1651; first compound 0.01581 µM,0.979
same,relative viability,NCI-H1651; first compound 0.05 µM,0.442
same,relative viability,NCI-H1651; first compound 0.1581 µM,0.809
same,relative viability,NCI-H1651; first compound 0.5 µM,0.847
